Patent US6603023B2 (priority 1996, dated 2003)
Like-named read-outs stand apart in the source and are kept apart here.

Assays:
[1] = test system: CCRF-CEM human T-cell acute lymphoblastic leukemia cell line; test: XTT cytotoxicity (cell growth inhibition), CCRF-CEM
Method: The DC-3F hamster lung fibroblast cell line and its actinomycin D-selected sublines (DC-3F/ADII and DC-3F/ADX) were obtained from the Memorial Sloan-Kettering Cancer Center (MSKCC).
(§1) The drug-resistant cell lines were continuously cultured in the presence of the selecting agent, AD, DX, VBL or VM to maintain the drug resistant phenotypes. […] All cells were cultured in RPMI 1640-10% FBS at 37° C. 5% CO2 (see below).
(§2) The cells were cultured at an initial density of 5×10^4 cells/mL. They were maintained in a 5% CO2-humidified atmosphere at 37° C. in RPMI-1640 medium (GIBCO-BRL, Gaithersburg, Md.) containing penicillin (100 U/mL), streptomycin ([…]) (GIBCO-BRL) and 10% heat inactivate fetal bovine serum. Culture for cell suspension (such as for CCRF-CEM, P388 and sublines), were performed by the XTT-microculture tetrazonium method (Scudiero, D. A. et al., Cancer Res. 1988, 48, 4827-4833) in duplicate in 96-well microtiter plates.
(§3) 2′,3′-Bis(methoxy-4-nitro-5-sufophenyl)-5-[(phenylamino)carbonyl]2H-tetrazolium hyudroxide (XTT) was prepared at 1 mg/mL in prewarmed (37° C.) medium without serum. Phenazine methosulfate (PMS) and fresh XTT were mixed together to obtain 0.025 mM PMS-XTT solution (25 μL of the stock 5 mM PMS was added per 5 mL of 1 mg/mL XTT). Following a 72 h incubation, 50 μL of the assay aliquots were added to each well of the cell culture. After incubation at 37° C. for 4 h, absorbance at 450 nm and 630 nm was measured with a microplate reader (EL340, Bio-Tek Instruments, Inc., Winooski, Vt.).

CCRF-CEM/VBL100 = test: cells; format: cell-based, human; conditions: read-out: IC50
Method: as §1, §2, §3

CCRF-CEM/VM1 = test: cells; format: cell-based, human; conditions: Table 6, single determinations, read-out: IC50
Method: as §1, §2, §3

[2] = Table 6, single determinations, listed as 4
[3] = Table 5, CCRF-CEM/VLB, single determinations

Row | SMILES | IC50 ([1]; Table 6, single determinations) | IC50 (CCRF-CEM/VBL100; Table 6, single determinations) | IC50 (CCRF-CEM/VM1) | IC50 ([1]; Table 7, CEM) | IC50 (CCRF-CEM/VBL100; Table 7, CEM/VBL) | IC50 [1] | IC50 ([1]; Table 5, single determinations) | IC50 (CCRF-CEM/VBL100; [3]) | IC50 (CCRF-CEM/VBL100) | other results
1 | CC(=Cc1csc(C)n1)C1CC2OC2CCCCC(O)C(C)C(=O)C(C)(C)C(O)CC(=O)O1 (mixture of isomers) [8-desmethyl Mix-cis Epo] | 960 nM | 5950 nM | 2550 nM |  |  |  |  |  |  | 
2 | CC(=Cc1csc(C)n1)C1CC=CCCCC(C)C(O)C(C)C(=O)C(C)(C)C(O)CC(=O)O1 (stereo not shown) [#4] |  |  |  |  |  |  |  |  |  | IC50 [1, 2]: 2120 nM; IC50 ([1]; Table 7, CEM, listed as 4): 2100 nM; IC50 (CCRF-CEM/VBL100; [2]): 43000 nM; IC50 (CCRF-CEM/VBL100; Table 7, CEM/VBL, listed as 4): 43800 nM; IC50 (CCRF-CEM/VM1; listed as 4): 2760 nM
3 | CC(=Cc1csc(C)n1)C1CC2OC2CCCC(C)C(O)C(C)C(=O)C(C)(C)C(O)CC(=O)O1 (stereo not shown) [#5] | > 20000 nM | 35200 nM | 98000 nM | > 20000 nM | 35200 nM |  |  |  |  | 
4 | CCC/C1=C\C[C@@H](/C(C)=C/c2csc(C)n2)OC(=O)C[C@H](O)C(C)(C)C(=O)[C@H](C)[C@@H](O)[C@@H](C)CCC1 [#17] |  |  |  | 90 nM | 254 nM | 90 nM | 90 nM | 254 nM | 254 nM | Rel. Value (potency relative to Epo B) ([1]; CCRF-CEM leukemic cells): 1/257
5 | C/C(=C\c1coc(C)n1)[C@@H]1C/C=C\CCC[C@H](C)[C@H](O)[C@@H](C)C(=O)C(C)(C)[C@@H](O)CC(=O)O1 [#20] |  |  |  | 30 nM | 49 nM | 30 nM | 30 nM | 49 nM | 49 nM | 
6 | C/C1=C/C[C@@H](/C(C)=C/c2ccccc2)OC(=O)C[C@H](O)C(C)(C)C(=O)[C@H](C)[C@@H](O)[C@@H](C)CCC1 [#22] |  |  |  | 98 nM | 146 nM |  | 98 nM | 146 nM | 146 nM | 
